The text below walks through data of patent publication US10406146B2, “Heterocyclic compound” (TAKEDA PHARMACEUTICAL COMPANY LIMITED, priority 2015, dated 2019).

SMILES strings stand for the structures.

Common to all, as to format: biochemical
Test [1] addresses T1, HDAC6 enzyme (Homo sapiens, UniProt Q9UBN7).
T1 construct: transducing full length HDAC1 and HDAC6 genes into Sf-9 insect cells; GST; purchased SignalChem; host or cells: Sf-9 insect cells
T1 sequence (Q9UBN7 1-1215): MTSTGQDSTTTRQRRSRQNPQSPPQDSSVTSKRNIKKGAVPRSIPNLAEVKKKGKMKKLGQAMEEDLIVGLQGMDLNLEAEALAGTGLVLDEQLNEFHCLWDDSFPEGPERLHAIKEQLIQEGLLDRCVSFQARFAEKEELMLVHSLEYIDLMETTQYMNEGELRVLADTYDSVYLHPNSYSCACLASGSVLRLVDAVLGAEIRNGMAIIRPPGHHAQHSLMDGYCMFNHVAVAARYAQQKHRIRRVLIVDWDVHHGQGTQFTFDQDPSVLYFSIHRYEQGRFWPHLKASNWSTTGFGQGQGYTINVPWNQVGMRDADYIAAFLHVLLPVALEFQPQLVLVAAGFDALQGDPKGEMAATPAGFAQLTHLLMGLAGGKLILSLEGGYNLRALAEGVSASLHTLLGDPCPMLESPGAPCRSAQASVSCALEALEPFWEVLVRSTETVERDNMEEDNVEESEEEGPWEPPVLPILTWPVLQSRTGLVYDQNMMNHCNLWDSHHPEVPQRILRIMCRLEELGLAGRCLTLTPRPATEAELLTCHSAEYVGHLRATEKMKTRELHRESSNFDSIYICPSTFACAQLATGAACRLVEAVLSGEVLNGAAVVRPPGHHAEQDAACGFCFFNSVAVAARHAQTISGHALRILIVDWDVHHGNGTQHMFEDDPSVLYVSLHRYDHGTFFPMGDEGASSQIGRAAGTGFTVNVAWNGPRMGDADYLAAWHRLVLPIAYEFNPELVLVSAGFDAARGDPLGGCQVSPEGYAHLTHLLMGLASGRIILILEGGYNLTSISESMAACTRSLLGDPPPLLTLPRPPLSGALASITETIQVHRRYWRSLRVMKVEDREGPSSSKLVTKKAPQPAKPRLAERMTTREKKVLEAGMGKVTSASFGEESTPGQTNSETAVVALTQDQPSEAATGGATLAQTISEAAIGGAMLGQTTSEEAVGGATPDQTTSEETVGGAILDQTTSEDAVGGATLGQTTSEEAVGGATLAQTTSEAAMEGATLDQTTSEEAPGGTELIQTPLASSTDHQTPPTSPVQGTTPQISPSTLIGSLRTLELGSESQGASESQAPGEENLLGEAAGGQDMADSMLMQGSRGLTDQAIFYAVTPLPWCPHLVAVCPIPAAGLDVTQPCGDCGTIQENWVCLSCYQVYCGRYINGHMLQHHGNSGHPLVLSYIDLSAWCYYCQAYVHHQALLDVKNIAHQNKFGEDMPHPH
Put plainly: HDAC6 enzyme inhibitory assay (HDAC-Glo I/II Assay kit). The conditions noted are these: wells without enzyme = 100% inhibition; for inhibition at 1 µM: read-out: HDAC6 inhibitory rate (%) (1 μM). The protocol: (§1) HDAC1/6 Enzyme Inhibitory Assay
(§2) HDAC1 enzyme and HDAC6 enzyme each prepared by transducing full length HDAC1 and HDAC6 genes into Sf-9 insect cells and purifying by GST affinity column were purchased from SignalChem. Using these enzymes, HDAC1 and/or HDAC6 enzyme inhibitory activities of the compound of the present invention were evaluated. Enzymes were used after preserved at −70° C. HDAC1 or HDAC6 enzyme inhibitory activity of the compound of the present invention was measured using HDAC-Glo™ I/II Assay kit (Promega) according to the following experimental method. The test compound diluted with assay buffer (24 mM Tris-HCl (pH 7.5), 1 mM MgCl2, 0.35 mM KCl, 135 mM NaCl, 0.6 mM Glutathione, 0.01% Tween-20) was added to a 384-well plate by each 2 μL. Then, HDAC1 or HDAC6 enzyme solution diluted with assay buffer was added thereto by each 4 μL, and the plate was incubated at room temperature for 60 min. After incubated, HDAC substrate-Developer solution prepared according to Promega protocol attached to the assay kit was added to the 384-well plate by each 2 μL, and the enzyme reaction was started. After reacting at room temperature for 20 min, luminescence level was measured using plate reader Envision (PerkinElmer). The inhibitory activity of each compound was calculated as a relative activity value when luminescence level in wells without enzyme is considered as 100% inhibition.

In test [2] the target is T2, HDAC1 enzyme (Homo sapiens, UniProt Q13547).
T2 construct: transducing full length HDAC1 and HDAC6 genes into Sf-9 insect cells; GST; purchased SignalChem; host or cells: Sf-9 insect cells
T2 sequence (Q13547 whole entry): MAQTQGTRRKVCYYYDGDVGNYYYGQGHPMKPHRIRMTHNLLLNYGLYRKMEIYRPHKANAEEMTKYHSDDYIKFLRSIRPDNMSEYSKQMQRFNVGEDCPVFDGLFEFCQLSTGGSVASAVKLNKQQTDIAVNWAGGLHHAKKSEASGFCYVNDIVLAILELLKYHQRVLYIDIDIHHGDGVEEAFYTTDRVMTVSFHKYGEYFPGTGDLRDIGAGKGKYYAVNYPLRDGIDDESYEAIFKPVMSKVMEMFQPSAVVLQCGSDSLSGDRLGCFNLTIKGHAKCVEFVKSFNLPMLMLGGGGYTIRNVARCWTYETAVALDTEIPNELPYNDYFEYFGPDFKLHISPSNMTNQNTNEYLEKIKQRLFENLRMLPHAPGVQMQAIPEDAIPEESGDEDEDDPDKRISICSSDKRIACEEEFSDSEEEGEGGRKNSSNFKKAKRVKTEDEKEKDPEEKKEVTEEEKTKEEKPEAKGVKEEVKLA
Put plainly: HDAC1 enzyme inhibitory assay (HDAC-Glo I/II Assay kit). The conditions noted are these: wells without enzyme = 100% inhibition; for inhibition at 1 µM: read-out: HDAC1 inhibitory rate (%) (1 μM). The protocol: as §1, §2

In test [3] the target is T3, HDAC9 enzyme (Homo sapiens, UniProt Q9UKV0).
T3 construct: transducing full length HDAC9 gene into Sf-9 insect cells; made in house; host or cells: Sf-9 insect cells
T3 sequence (Q9UKV0 whole entry, species assumed): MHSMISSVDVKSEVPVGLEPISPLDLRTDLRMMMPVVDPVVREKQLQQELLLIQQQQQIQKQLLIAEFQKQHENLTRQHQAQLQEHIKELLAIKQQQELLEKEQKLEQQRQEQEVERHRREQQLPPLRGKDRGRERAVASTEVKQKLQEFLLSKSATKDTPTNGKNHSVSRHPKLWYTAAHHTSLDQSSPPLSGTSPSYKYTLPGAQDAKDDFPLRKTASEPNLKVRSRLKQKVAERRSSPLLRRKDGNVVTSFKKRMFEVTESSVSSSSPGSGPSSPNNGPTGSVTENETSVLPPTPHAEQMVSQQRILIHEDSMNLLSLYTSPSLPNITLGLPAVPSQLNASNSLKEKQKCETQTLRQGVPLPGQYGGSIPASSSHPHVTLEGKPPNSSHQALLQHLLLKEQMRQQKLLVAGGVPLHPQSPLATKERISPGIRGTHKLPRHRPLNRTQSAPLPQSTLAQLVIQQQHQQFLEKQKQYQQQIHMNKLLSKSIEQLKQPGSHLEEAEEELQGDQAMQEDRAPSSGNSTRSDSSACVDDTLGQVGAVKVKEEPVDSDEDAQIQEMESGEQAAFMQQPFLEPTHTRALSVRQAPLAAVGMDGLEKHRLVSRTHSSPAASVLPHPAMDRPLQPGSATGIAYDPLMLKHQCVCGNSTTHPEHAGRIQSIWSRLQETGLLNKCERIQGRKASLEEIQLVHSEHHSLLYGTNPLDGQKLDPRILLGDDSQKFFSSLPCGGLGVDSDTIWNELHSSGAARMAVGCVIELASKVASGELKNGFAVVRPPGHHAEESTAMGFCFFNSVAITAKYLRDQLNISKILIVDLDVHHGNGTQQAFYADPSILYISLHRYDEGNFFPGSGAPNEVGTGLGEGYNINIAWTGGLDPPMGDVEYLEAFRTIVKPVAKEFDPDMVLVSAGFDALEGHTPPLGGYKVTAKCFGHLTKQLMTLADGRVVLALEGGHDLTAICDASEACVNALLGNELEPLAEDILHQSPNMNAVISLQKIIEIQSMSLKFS
Put plainly: HDAC9 enzyme inhibitory assay (HDAC-Glo class IIa). To be noted: wells without enzyme = 100% inhibition; for inhibition at 1 µM: read-out: HDAC9 inhibitory rate (%) (1 μM). The protocol: HDAC9 Enzyme Inhibitory Assay
Enzyme was prepared by transducing full length HDAC9 gene into Sf-9 insect cells and purifying by Ni-NTA affinity column, and HDAC9 enzyme inhibitory activity was evaluated. Enzymes were used after preserved at −70° C. HDAC9 enzyme inhibitory activity of the test compound was measured using HDAC-Glo class IIa (Promega) according to the following experimental method. The test compound diluted with assay buffer (24 mM Tris-HCl (pH 7.5), 1 mM MgCl2, 0.35 mM KCl, 135 mM NaCl, 0.6 mM Glutathione, 0.01% Tween-20) was added to a 384-well plate by each 2 μL. Then, HDAC9 enzyme solution diluted with assay buffer was added thereto by each 2 μL, and the plate was incubated at room temperature for 60 min. After incubated, HDAC substrate-Developer solution prepared according to Promega protocol was added to the 384-well plate by each 4 μL, and the enzyme reaction was started. After reacting at room temperature for 20 min, luminescence level was measured using plate reader Envision (PerkinElmer). The inhibitory activity of each compound was calculated as a relative activity value when luminescence level in wells without enzyme is considered as 100% inhibition.

Consider `Cn1nc(C(=O)NCC2CCCCN2C(=O)Nc2ccc(-c3noc(C(F)(F)F)n3)cc2)c2ccccc21` (stereo not drawn) [Example 42, 1-methyl-N-((1-((4-(5-(trifluoromethyl)-1,2,4-oxadiazol-3-yl)phenyl)carbamoyl)piperidin-2-yl)methyl)-1H-indazole-3-carboxamide], for which the inhibition at 1 µM in test [1] is 3%; in test [2], 8%; in test [3], 71%.

On to `O=C(NCC1CCCCN1C(=O)Nc1ccc(-c2noc(C(F)(F)F)n2)cc1)c1cccc(F)c1` (stereo not drawn) [Example 5, 2-(((3-fluorobenzoyl)amino)methyl)-N-(4-(5-(trifluoromethyl)-1,2,4-oxadiazol-3-yl)phenyl)piperidine-1-carboxamide], for which the inhibition at 1 µM is 4% in test [1], 35% in test [2] and 95% in test [3].

With `O=C(NCC1CCCCN1C(=O)Nc1ccc(-c2noc(C(F)(F)F)n2)cc1)c1ccccc1F` (stereo not drawn) [Example 4, 2-(((2-fluorobenzoyl)amino)methyl)-N-(4-(5-(trifluoromethyl)-1,2,4-oxadiazol-3-yl)phenyl)piperidine-1-carboxamide], the inhibition at 1 µM in test [1] is 5%; in test [2], 44%; in test [3], 89%.

For `CN(C)c1ccc(C(=O)NCC2CCCCN2C(=O)Nc2ccc(-c3noc(C(F)(F)F)n3)cc2)cc1` (stereo not drawn) [Example 29, 2-(((4-(dimethylamino)benzoyl)amino)methyl)-N-(4-(5-(trifluoromethyl)-1,2,4-oxadiazol-3-yl)phenyl)piperidine-1-carboxamide], the inhibition at 1 µM was determined as 1% in test [1], 1% in test [2] and 88% in test [3].

Consider `O=C(NCC1CCCCN1C(=O)Nc1ccc(-c2noc(C(F)(F)F)n2)cc1)c1cc2ccccc2o1` (stereo not drawn) [Example 44, 2-(((1-benzofuran-2-ylcarbonyl)amino)methyl)-N-(4-(5-(trifluoromethyl)-1,2,4-oxadiazol-3-yl)phenyl)piperidine-1-carboxamide], for which the figures for the inhibition at 1 µM in test [1], in test [2] and in test [3] were 1%, 3% and 79%, respectively.

Regarding `O=C(NCC1CCCCN1C(=O)Nc1ccc(-c2noc(C(F)(F)F)n2)cc1)c1ccc(F)cc1` (stereo not drawn) [Example 6, 2-(((4-fluorobenzoyl)amino)methyl)-N-(4-(5-(trifluoromethyl)-1,2,4-oxadiazol-3-yl)phenyl)piperidine-1-carboxamide], the figures for the inhibition at 1 µM in test [1], in test [2] and in test [3] were 5%, 34% and 94%, respectively.

As for `CC(=O)N1CCC(C(=O)NCC2CCCCN2C(=O)Nc2ccc(-c3noc(C(F)(F)F)n3)cc2)CC1` (stereo not drawn) [Example 53, 2-((((1-acettylpiperidin-4-yl)carbonyl)amino)methyl)-N-(4-(5-(trifluoromethyl)-1,2,4-oxadiazol-3-yl)phenyl)piperidine-1-carboxamide], the “HDAC6 inhibitory rate (%) (1 μM)” value in test [1] amounted to 7%. The “HDAC1 inhibitory rate (%) (1 μM)” value in test [2] is given as 32%. In addition, the “HDAC9 inhibitory rate (%) (1 μM)” value in test [3] came to 94%.

Consider `NC(=O)c1ccc(C(=O)NCC2CCCCN2C(=O)Nc2ccc(-c3noc(C(F)(F)F)n3)cc2)cc1` (stereo not drawn) [Example 22, N-((1-((4-(5-(trifluoromethyl)-1,2,4-oxadiazol-3-yl)phenyl)carbamoyl)piperidin-2-yl)methyl)terephthalamide], for which the figures for the inhibition at 1 µM in test [1], in test [2] and in test [3] were 2%, 6% and 90%, respectively.

In the case of `COc1ccc(C(=O)NCC2CCCCN2C(=O)Nc2ccc(-c3noc(C(F)(F)F)n3)cc2)cc1` (stereo not drawn) [Example 25, 2-(((4-methoxybenzoyl)amino)methyl)-N-(4-(5-(trifluoromethyl)-1,2,4-oxadiazol-3-yl)phenyl)piperidine-1-carboxamide], the values for the inhibition at 1 µM in test [1], in test [2] and in test [3] were 2%, 12% and 95%, respectively.

For the molecule `O=C(NCC1CCCCN1C(=O)Nc1ccc(-c2noc(C(F)(F)F)n2)cc1)c1ccccc1C(F)(F)F` (stereo not drawn) [Example 16, 2-(((2-(trifluoromethyl)benzoyl)amino)methyl)-N-(4-(5-(trifluoromethyl)-1,2,4-oxadiazol-3-yl)phenyl)piperidine-1-carboxamide], the values for the inhibition at 1 µM in test [1], in test [2] and in test [3] were 1%, -2% and 57%, respectively.

In the case of `O=C(NCC1CCCCN1C(=O)Nc1ccc(-c2noc(C(F)(F)F)n2)cc1)c1cccc(C(F)(F)F)c1` (stereo not drawn) [Example 17, 2-(((3-(trifluoromethyl)benzoyl)amino)methyl)-N-(4-(5-(trifluoromethyl)-1,2,4-oxadiazol-3-yl)phenyl)piperidine-1-carboxamide], the figures for the inhibition at 1 µM in test [1], in test [2] and in test [3] were 1%, 4% and 80%, respectively.

`O=C(NCC1CCCCN1C(=O)Nc1ccc(-c2noc(C(F)(F)F)n2)cc1)c1cccc(-c2ccccc2)c1` (stereo not drawn) [Example 14, 2-(((biphenyl-3-ylcarbonyl)amino)methyl)-N-(4-(5-(trifluoromethyl)-1,2,4-oxadiazol-3-yl)phenyl)piperidine-1-carboxamide]: the inhibition at 1 µM in test [1] is 5%; in test [2], -8%; in test [3] it was 51%.

Take `O=C(NCC1CCCCN1C(=O)Nc1ccc(-c2noc(C(F)(F)F)n2)cc1)C1CCCCC1` (stereo not drawn) [Example 50]: the “HDAC6 inhibitory rate (%) (1 μM)” value in test [1] came to 7%. The “HDAC1 inhibitory rate (%) (1 μM)” value in test [2] was determined as 79%. In test [3], the “HDAC9 inhibitory rate (%) (1 μM)” value is recorded as 95%.

With `N#Cc1cccc(C(=O)NCC2CCCCN2C(=O)Nc2ccc(-c3noc(C(F)(F)F)n3)cc2)c1` (stereo not drawn) [Example 20, 2-(((3-cyanobenzoyl)amino)methyl)-N-(4-(5-(trifluoromethyl)-1,2,4-oxadiazol-3-yl)phenyl)piperidine-1-carboxamide], the inhibition at 1 µM in test [1] amounted to 4%; in test [2], 32%; in test [3] it was 95%.

For `O=C(NCC1CCCCN1C(=O)Nc1ccc(-c2noc(C(F)(F)F)n2)cc1)c1ccc(O)cc1` (stereo not drawn) [Example 27, 2-(((4-hydroxybenzoyl)amino)methyl)-N-(4-(5-(trifluoromethyl)-1,2,4-oxadiazol-3-yl)phenyl)piperidine-1-carboxamide], the inhibition at 1 µM in test [1] amounted to 3%; in test [2], 37%; in test [3], 93%.
